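These data come from cells grown in 96-well plates and exposed to compound for 48 hours at five concentrations. GI50 = concentration required for 50% inhibition of growth. TGI marks complete inhibition of growth.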
Assays:
Experiment in all cases: NCI tumour cell line growth inhibition, 48 h
EKVX NSCLC = test system: EKVX NSCLC
MOLT-4 leukemia = test system: MOLT-4 leukemia
COLO 205 colon = test system: COLO 205 colon
ACHN renal = test system: ACHN renal
HT29 colon = test system: HT29 colon
NCI-H23 lung = test system: NCI-H23 lung
MALME-3M melanoma = test system: MALME-3M melanoma
HOP-92 NSCLC = test system: HOP-92 NSCLC
IGROV1 ovarian = test system: IGROV1 ovarian
NCI/ADR-RES ovarian = test system: NCI/ADR-RES ovarian
T-47D breast = test system: T-47D breast

Row | Compound | TGI (EKVX NSCLC) | TGI (MOLT-4 leukemia) | TGI (COLO 205 colon) | TGI (ACHN renal) | TGI (HT29 colon) | TGI (NCI-H23 lung) | TGI (MALME-3M melanoma) | TGI (HOP-92 NSCLC) | TGI (IGROV1 ovarian) | TGI (NCI/ADR-RES ovarian) | TGI (T-47D breast) | GI50 (EKVX NSCLC) | GI50 (NCI/ADR-RES ovarian) | GI50 (COLO 205 colon) | GI50 (NCI-H23 lung) | GI50 (T-47D breast) | GI50 (MALME-3M melanoma) | GI50 (HOP-92 NSCLC) | GI50 (ACHN renal) | GI50 (HT29 colon)
1 | O=c1ccc2nc3cc(Br)ccc3sc-2c1 | > 100 µM | > 100 µM | > 100 µM | > 100 µM | > 100 µM | > 100 µM | > 100 µM | > 100 µM | > 100 µM | – | – | – | – | – | – | – | – | – | – | –
2 | C[N+]1(CCC(=O)c2ccco2)CC2CCC(CC2)C1 (stereo unspecified) | > 100 µM | > 100 µM | > 100 µM | > 100 µM | > 100 µM | > 100 µM | > 100 µM | > 100 µM | > 100 µM | > 100 µM | > 100 µM | – | – | – | – | – | – | – | – | –
3 | Nc1c(C(=O)O)nnc2cc(Cl)c(Cl)cc12 | > 100 µM | > 100 µM | > 100 µM | > 100 µM | > 100 µM | > 100 µM | > 100 µM | – | > 100 µM | > 100 µM | > 100 µM | – | – | – | – | – | – | – | – | –
4 | COc1ccc(C(=O)C2=NON3OC23C(=O)c2ccc(OC)cc2)cc1 (stereo unspecified) | 34.1 µM | > 21.9 µM | 21.7 µM | 31.3 µM | 52.9 µM | 17.8 µM | 25.7 µM | 5.16 µM | 27.3 µM | – | – | – | – | – | – | – | – | – | – | –
5 | CN(C)c1ccc(C=Nc2ccc(Oc3ccc(Cl)cc3)c(Cl)c2)cc1 | 40.8 µM | 66.3 µM | 45.2 µM | 79.6 µM | 29.6 µM | 39.9 µM | 36.8 µM | 36.1 µM | 85.1 µM | 33.2 µM | 75.3 µM | – | – | – | – | – | – | – | – | –
6 | COCC1CCCN1c1ccc(C=N/C(C#N)=C(\N)C#N)cc1 (stereo unspecified) | > 100 µM | – | > 100 µM | – | – | > 100 µM | > 100 µM | 46 µM | – | > 100 µM | > 100 µM | > 100 µM | > 100 µM | > 100 µM | > 100 µM | > 100 µM | 7.75 µM | 14.3 µM | – | –
7 | COCCNCc1ccc(-c2cc3nccc(Oc4ccc(NC(=S)NC(=O)Cc5ccc(F)cc5)cc4F)c3s2)nc1 | 6.96 µM | – | 4.3 µM | 4.54 µM | 3.19 µM | 4.63 µM | – | 4.48 µM | – | 5.2 µM | 5.75 µM | 2.5 µM | 2.02 µM | 2.02 µM | 1.51 µM | 2.12 µM | – | 1.22 µM | 1.97 µM | 1.45 µM
8 | Cn1c(=O)[nH]c2nncnc2c1=O | 289 µM | > 625 µM | 501 µM | – | > 561 µM | 420 µM | 119 µM | 71.2 µM | 133 µM | > 625 µM | – | – | – | – | – | – | – | – | – | –
9 | Cn1cnc([N+](=O)[O-])c1Sc1nc(N)nc2c1ncn2C1OC(CO)C(O)C1O (stereo unspecified) | > 100 µM | > 100 µM | 23.8 µM | > 100 µM | 33.6 µM | 41.4 µM | > 100 µM | > 100 µM | > 82.1 µM | > 100 µM | > 100 µM | – | – | – | – | – | – | – | – | –
10 | COc1cc2oc(=O)ccc2cc1C(=O)CC(C)C | > 100 µM | > 100 µM | > 100 µM | > 100 µM | > 100 µM | > 100 µM | – | > 100 µM | > 100 µM | > 100 µM | > 100 µM | – | – | – | – | – | – | – | – | –
11 | Cc1coc2c1C[C@@]1(C)[C@H](CCC[C@@H]1C)[C@H]2O | > 100 µM | 59.7 µM | > 100 µM | 78.3 µM | > 100 µM | > 100 µM | 44.7 µM | 66.2 µM | 65.4 µM | 68.3 µM | 84.2 µM | – | – | – | – | – | – | – | – | –
12 | Nc1ncnc2c1sc1nc3ccccc3n12 | > 100 µM | > 78.7 µM | > 100 µM | > 100 µM | > 100 µM | > 100 µM | > 100 µM | > 100 µM | > 100 µM | > 100 µM | > 100 µM | – | – | – | – | – | – | – | – | –
13 | O=c1[nH]c(Nc2ccc(Cl)c(C(F)(F)F)c2)nc2nc[nH]c12 | > 100 µM | 62.4 µM | > 100 µM | > 100 µM | > 100 µM | > 100 µM | > 100 µM | > 100 µM | > 100 µM | > 100 µM | > 100 µM | – | – | – | – | – | – | – | – | –
14 | N#CC12Cc3cc4c(cc3-c3cccc(c31)CCN2C(=O)c1ccccc1)OCO4 (stereo unspecified) | > 100 µM | > 100 µM | > 100 µM | > 100 µM | > 100 µM | > 100 µM | > 100 µM | 89.5 µM | > 100 µM | – | – | – | – | – | – | – | – | – | – | –
15 | OCc1cn(C(c2ccccc2)(c2ccccc2)c2ccccc2)cn1 | – | > 100 µM | > 100 µM | > 100 µM | > 100 µM | > 100 µM | – | > 100 µM | > 100 µM | > 100 µM | > 100 µM | – | – | – | – | – | – | – | – | –
16 | COc1ccc2nc3c(C(=O)NCCN(C)C)cccc3cc2c1 | 6.25 µM | 8.4 µM | 3.74 µM | – | 6.37 µM | 5.09 µM | > 21.4 µM | 5.76 µM | 6.77 µM | 4.99 µM | – | – | – | – | – | – | – | – | – | –
17 | CC(C)(C)OC(=O)NC(CCCCNC(=O)OCc1ccccc1)C(=O)NCCNc1ccc(NCCNC(=O)C(CCCCNC(=O)OCc2ccccc2)NC(=O)OC(C)(C)C)c2c1C(=O)c1ccccc1C2=O (stereo unspecified) | > 100 µM | > 100 µM | > 100 µM | > 100 µM | > 100 µM | > 100 µM | > 100 µM | > 71.4 µM | > 100 µM | > 100 µM | 28 µM | – | – | – | – | – | – | – | – | –
